The values that follow come from US9884818B2, “Sulphamoylpyrrolamide derivatives and the use thereof as medicaments for the treatment of hepatitis B” (Janssen Sciences Ireland UC, priority 2013, dated 2018).

In series [1] the test system is HBV. Nature of the series: Anti-HBV activity, HepG2.2.15 stable transfected cell line, HBV DNA from secreted virions by realtime PCR. The format is cell-based. To be noted: Hepatitis B virus, HepG2.2.15, 144 h, HepG2.2.15 cells, 6 days of treatment, HBV DNA from secreted virions; read-out: HepG2 2.15 EC50.
Series [2] is described as follows: Cytotoxicity in HepG2 cells, Resazurin viability assay. To be noted: human, HepG2 cells, HepG2 4 days CC50 (μM), incubated for 4 days, Resazurin assay. In general terms: Resazurin is reduced to fluorescent resorufin, in cell work by metabolically active cells.
Series [3] relates to HBV. Nature of the series: Anti-HBV activity, HepG2.117 inducibly HBV producing cell line (Tet-off), intracellular HBV DNA by realtime PCR. It is filed as cell-based. Conditions: Hepatitis B virus, HepG2.117, 72 h, HepG2.117 cells, 3 days of treatment, intracellular HBV DNA; read-out: HepG2 117 EC50.

Each structure is given as a SMILES string. A value given as a limit tells only on which side of the number the result lay.

Take `Cn1cc(S(=O)(=O)NC23CC(C2)C3)cc1C(=O)Nc1cc(F)c(F)c(Cl)c1` [Compound 167, 4-(Bicyclo[1.1.1]pent-1-ylsulfamoyl)-N-(3-chloro-4,5-difluorophenyl)-1-methyl-1H-pyrrole-2-carboxamide]: the EC50 (in general, the concentration at which the effect is half-maximal) in the series on HBV [1] came to 120 nM; in the series on HBV [3], 310 nM. The 50% cytotoxic concentration (CC50) (usually the concentration giving 50% cytotoxicity) at 4 days in series [2] is greater than 25 µM.
With `Cn1cc(S(=O)(=O)NCCC(F)(F)F)cc1C(=O)Nc1cc(F)c(F)c(Cl)c1` [Compound 168, N-(3-Chloro-4,5-difluorophenyl)-1-methyl-4-[(3,3,3-trifluoropropyl)sulfamoyl]-1H-pyrrole-2-carboxamide], the EC50 amounted to 120 nM in the series on HBV [1] and 320 nM in the series on HBV [3]. Moreover, the half-maximal cytotoxic concentration (CC50) at 4 days in series [2] was greater than 25 µM.
For the molecule `C[C@@H](NS(=O)(=O)c1cn(C)c(C(=O)Nc2ccc(F)c(C#N)c2)c1F)C(F)(F)F` [Compound 170, N-(3-Cyano-4-fluorophenyl)-3-fluoro-1-methyl-4-{[(1R)-2,2,2-trifluoro-1-methylethyl]sulfamoyl}-1H-pyrrole-2-carboxamide], the EC50 in the series with HBV [1] was less than 5 nM; in the series on HBV [3] it was 5 nM. In series [2], this molecule had a CC50 at 4 days greater than 100 µM.
As to `CC(C)NS(=O)(=O)c1cn(C)c(C(=O)Nc2ccc(F)c(C#N)c2)c1F` [Compound 171, N-(3-Cyano-4-fluorophenyl)-3-fluoro-1-methyl-4-[(1-methylethyl)sulfamoyl]-1H-pyrrole-2-carboxamide], the half-maximal effective concentration (EC50) in the series on HBV [1] and in the series with HBV [3] was 20 nM in each case. Moreover, the 50% cytotoxic concentration (CC50) at 4 days in series [2] was greater than 25 µM.
For `CC(C)NS(=O)(=O)c1cc(C(=O)Nc2ccc(F)c(Cl)c2F)n(C)c1` [Compound 172, N-(3-Chloro-2,4-difluorophenyl)-1-methyl-4-[(1-methylethyl)sulfamoyl]-1H-pyrrole-2-carboxamide], the EC50 in the series with HBV [1] was determined as 100 nM; in the series with HBV [3] it was 80 nM. In series [2], this molecule registered a cytotoxic concentration (CC50) at 4 days greater than 25 µM.
Turning to `CC(C)NS(=O)(=O)c1cc(C(=O)Nc2cccc(Cl)c2F)n(C)c1` [Compound 173, N-(3-Chloro-2-fluorophenyl)-1-methyl-4-[(1-methylethyl)sulfamoyl]-1H-pyrrole-2-carboxamide], the figures for the EC50 with HBV [1] and in the series with HBV [3] were 210 nM and 320 nM, respectively. The CC50 at 4 days in series [2] was greater than 25 µM.
As for `CC(C)NS(=O)(=O)c1cc(C(=O)Nc2ccc(F)c(Cl)c2)n(C)c1` [Compound 174, N-(3-Chloro-4-fluorophenyl)-1-methyl-4-[(1-methylethyl)sulfamoyl]-1H-pyrrole-2-carboxamide], the results for the EC50 in the series with HBV [1] and in the series with HBV [3] were 80 nM and 40 nM, respectively. Moreover, in series [2], the cytotoxic concentration (CC50) at 4 days is greater than 25 µM.
Take `CC(C)NS(=O)(=O)c1cc(C(=O)Nc2ccc(F)c(C#N)c2)n(C)c1` [Compound 175, N-(3-Cyano-4-fluorophenyl)-1-methyl-4-[(1-methylethyl)sulfamoyl]-1H-pyrrole-2-carboxamide]: the EC50 in the series with HBV [1] worked out at 70 nM; in the series with HBV [3] it was 130 nM. Also, the half-maximal cytotoxic concentration (CC50) at 4 days in series [2] is greater than 25 µM.
For `CC(C)NS(=O)(=O)c1cc(C(=O)Nc2cccc(C#N)c2F)n(C)c1` [Compound 176, N-(3-Cyano-2-fluorophenyl)-1-methyl-4-[(1-methylyl)sulfamoyl]-1H-pyrrole-2-carboxamide], the EC50 with HBV [1] came to 500 nM; in the series on HBV [3], 370 nM. Further, the CC50 at 4 days in series [2] is greater than 25 µM.
Regarding `CC(C)NS(=O)(=O)c1cc(C(=O)Nc2cccc(C#N)c2)n(C)c1` [Compound 177, N-(3-Cyanophenyl)-1-methyl-4-[(1-methylethyl)sulfamoyl]-1H-pyrrole-2-carboxamide], the values for the 50% effective concentration (EC50) in the series with HBV [1] and in the series with HBV [3] were 330 nM and 260 nM, respectively. The same molecule returned a CC50 at 4 days in series [2] greater than 25 µM.
For the molecule `CC(C)NS(=O)(=O)c1cc(C(=O)Nc2ccc(F)c(C#N)c2F)n(C)c1` [Compound 178, N-(3-Cyano-2,4-difluorophenyl)-1-methyl-4-[(1-methylethyl)sulfamoyl]-1H-pyrrole-2-carboxamide], the 50% effective concentration (EC50) with HBV [1] amounted to 40 nM; with HBV [3] it was 90 nM. Further, the 50% cytotoxic concentration (CC50) at 4 days in series [2] is greater than 25 µM.
As to `Cc1c(S(=O)(=O)NC2(C)COC2)cn(C)c1C(=O)Nc1ccc(F)c(C(F)(F)F)c1` [Compound 179, N-[4-Fluoro-3-(trifluoromethyl)phenyl]-1,3-dimethyl-4-[(3-methyloxetan-3-yl)sulfamoyl]-1H-pyrrole-2-carboxamide], the 50% effective concentration (EC50) was found to be 300 nM in the series with HBV [1] and 270 nM in the series with HBV [3]. Besides, the cytotoxic concentration (CC50) at 4 days in series [2] is greater than 25 µM.
For the molecule `C[C@@H](NS(=O)(=O)c1cn(C)c(C(=O)Nc2cccc(C#N)c2)c1F)C(F)(F)F` [Compound 180, N-(3-Cyanophenyl)-3-fluoro-1-methyl-4-{[(1R)-2,2,2-trifluoro-1-methylethyl]sulfamoyl}-1H-pyrrole-2-carboxamide], the EC50 with HBV [1] came to 10 nM; in the series with HBV [3], 20 nM. This molecule registered a CC50 at 4 days in series [2] greater than 25 µM.
Regarding `C[C@@H](NS(=O)(=O)c1cn(C)c(C(=O)Nc2ccc(F)c(C#N)c2F)c1F)C(F)(F)F` [Compound 181, N-(3-Cyano-2,4-difluorophenyl)-3-fluoro-1-methyl-4-{[(1R)-2,2,2-trifluoro-1-methylethyl]sulfamoyl}-1H-pyrrole-2-carboxamide], the EC50 with HBV [1] was 8 nM; in the series on HBV [3] it was 6 nM. The CC50 at 4 days in series [2] is greater than 25 µM.
Take `C[C@@H](NS(=O)(=O)c1cn(C)c(C(=O)Nc2cccc(C#N)c2F)c1F)C(F)(F)F` [Compound 182, N-(3-Cyano-2-fluorophenyl)-3-fluoro-1-methyl-4-{[(1R)-2,2,2-trifluoro-1-methylethyl]sulfamoyl}-1H-pyrrole-2-carboxamide]: the values for the EC50 in the series on HBV [1] and with HBV [3] were 10 nM and 30 nM, respectively. For the same molecule, the cytotoxic concentration (CC50) at 4 days in series [2] is greater than 25 µM.
Take `C[C@@H](NS(=O)(=O)c1cn(C)c(C(=O)Nc2ccc(F)c(F)c2F)c1F)C(F)(F)F` [Compound 183, 3-Fluoro-1-methyl-4-{[(1R)-2,2,2-trifluoro-1-methylethyl]sulfamoyl}-N-(2,3,4-trifluorophenyl)-1H-pyrrole-2-carboxamide]: the EC50 in the series on HBV [1] is 20 nM; with HBV [3], 10 nM. Further, in series [2], the CC50 at 4 days was greater than 25 µM.
Take `C[C@@H](NS(=O)(=O)c1cn(C)c(C(=O)Nc2ccc(F)c(Br)c2F)c1F)C(F)(F)F` [Compound 184, N-(3-Bromo-2,4-difluorophenyl)-3-fluoro-1-methyl-4-{[(1R)-2,2,2-trifluoro-1-methylethyl]sulfamoyl}-1H-pyrrole-2-carboxamide]: the EC50 in the series on HBV [1] was determined as 8 nM; with HBV [3], 6 nM. Also, in series [2], the cytotoxic concentration (CC50) at 4 days is greater than 25 µM.
For `C[C@@H](NS(=O)(=O)c1cn(C)c(C(=O)Nc2ccc(F)c(Cl)c2F)c1F)C(F)(F)F` [Compound 185, N-(3-Chloro-2,4-difluorophenyl)-3-fluoro-1-methyl-4-{[(1R)-2,2,2-trifluoro-1-methylethyl]sulfamoyl}-1H-pyrrole-2-carboxamide], the values for the 50% effective concentration (EC50) with HBV [1] and with HBV [3] were 6 nM and 5 nM, respectively. In addition, the CC50 at 4 days in series [2] is greater than 25 µM.
Taken in the same sequence, the figures for `CC[C@@H](C)NS(=O)(=O)c1cn(C)c(C(=O)Nc2ccc(F)c(C#N)c2)c1F` [Compound 186, N-(3-Cyano-4-fluorophenyl)-3-fluoro-1-methyl-4-{[(1R)-1-methyl-propyl]sulfamoyl}-1H-pyrrole-2-carboxamide] were 8 nM, 5 nM and greater than 25 µM.
In the same order, the values of `Cn1cc(S(=O)(=O)NC2(C)CC(F)(F)C2)c(F)c1C(=O)Nc1ccc(F)c(C#N)c1` [Compound 187, N-(3-Cyano-4-fluorophenyl)-4-[(3,3-difluoro-1-methylcyclobutyl)sulfamoyl]-3-fluoro-1-methyl-1H-pyrrole-2-carboxamide] are 8 nM, 6 nM and greater than 25 µM.
Turning to `C[C@H](NS(=O)(=O)c1cn(C)c(C(=O)Nc2ccc(F)c(C#N)c2)c1F)C(F)(F)F` [Compound 188, N-(3-Cyano-4-fluorophenyl)-3-fluoro-1-methyl-4-{[(1S)-2,2,2-trifluoro-1-methylethyl]sulfamoyl}-1H-pyrrole-2-carboxamide], the EC50 in the series on HBV [1] was determined as 40 nM; with HBV [3], 30 nM. The molecule further yielded a CC50 at 4 days in series [2] greater than 25 µM.
In the case of `Cn1cc(S(=O)(=O)NC2(C(F)(F)F)CCC2)cc1C(=O)Nc1cc(F)c(F)c(Cl)c1` [Compound 189, N-(3-Chloro-4,5-difluorophenyl)-1-methyl-4-{[1-(trifluoromethyl)-cyclobutyl]sulfamoyl}-1H-pyrrole-2-carboxamide], the EC50 in the series with HBV [1] and with HBV [3] was 7 nM each time. The midpoint of cytotoxicity in series [2], the CC50 at 4 days, lay at 11.3 µM.
Take `Cn1cc(S(=O)(=O)NC(C)(C)C)cc1C(=O)Nc1ccc(F)c(C#N)c1` [Compound 190, 4-(tert-Butylsulfamoyl)-N-(3-cyano-4-fluorophenyl)-1-methyl-1H-pyrrole-2-carboxamide]: the figures for the EC50 in the series on HBV [1] and in the series on HBV [3] were 90 nM and 100 nM, respectively. Besides, the half-maximal cytotoxic concentration (CC50) at 4 days in series [2] is greater than 25 µM.
`Cn1cc(S(=O)(=O)NC(C)(C)C)cc1C(=O)Nc1cccc(C#N)c1` [Compound 191, 4-(tert-Butylsulfamoyl)-N-(3-cyanophenyl)-1-methyl-1H-pyrrole-2-carboxamide]: the figures for the EC50 in the series with HBV [1] and in the series with HBV [3] were 180 nM and 160 nM, respectively. The molecule also showed a CC50 at 4 days in series [2] greater than 25 µM.
In the same order, the values of `Cn1cc(S(=O)(=O)NC(C)(C)C)cc1C(=O)Nc1cccc(C#N)c1F` [Compound 192, 4-(tert-Butylsulfamoyl)-N-(3-cyano-2-fluorophenyl)-1-methyl-1H-pyrrole-2-carboxamide] are 570 nM, 190 nM and greater than 25 µM.
Regarding `Cn1cc(S(=O)(=O)NC(C)(C)C)cc1C(=O)Nc1cccc(Cl)c1F` [Compound 193, 4-(tert-Butylsulfamoyl)-N-(3-chloro-2-fluorophenyl)-1-methyl-1H-pyrrole-2-carboxamide], the EC50 in the series with HBV [1] was 140 nM; in the series with HBV [3], 110 nM. Further, the CC50 at 4 days in series [2] is greater than 25 µM.
